According to US7767648B2, “Tissue specific prodrugs” (priority 2000, dated 2010):
Numbered stars: 1 amine (or outer) side, 2 acyl side, 3 side chain; on linkers, the order of the positions; unused ones are H or OH. Square brackets hold non-standard residues; d marks the D form. Peptide text beside a SMILES is read from it. γGlu = O=C(O)[C@H](CCC(=O)[*:2])N[*:1]

Experiments:
[1] = Cytotoxic activity of thapsigargin and its debutanoyl derivative; type: cell-based; conditions: cell line not stated
Protocol: The starting material for all the synthesized analogs is 8-O-debutanoylthapsigargin, which is easily available by triethylamine catalyzed methanolysis of thapsigargin. Removal of the butanoyl results in loss of cytotoxic activity with an LD50 of >50 μM compared to <100 nM for thapsigargin. Anhydrides of dicarboxylic acids of various lengths afforded analogs in which the acyl group attached to the O-8 ended in a free carboxylic acid. A dicyclohexylcarbodiimide (DCCI) promoted coupling of a 2,4-diaminoarene to the carboxylic acid analogs affords the derivatives in which contain a primary aromatic amine as a potential coupling point for additional moeities.

[2] = Stability of PSMA substrates in mouse plasma, 18 hour incubation, HPLC; type: in vitro ADME; conditions: for % APA-Glu or -Asp: 18 hour incubation in mouse plasma
From the text: (§1) In order that the prodrugs can be administered systemically via the blood, their stability in sera must be sufficiently high to avoid hydrolysis or other degradative processes which may occur prior to the prodrugs reaching their target tissues. In addition to GGH activity, a human blood plasma glutamate carboxypeptidase (PGCP) that has significant sequence homology to PSMA and glutamate carboxypeptidase activity has been identified. Therefore, to assay hydrolysis by GGH and other serum carboxypeptidases like PGCP, the APA-Glu*Glu*Glu*Glu*Asp, APA-Glu*Glu*Glu*Glu*Gln, and APA-Glu*Glu*Glu*Glu*Glu substrates were incubated in human and mouse plasma and hydrolysis determined by HPLC analysis after an 18-hour incubation, as shown in Table 3. As noted, GGH efficiently hydrolyzes poly-γ-glutamate chains as well as poly-γ-glutamated folate and methotrexate. GGH, however, is unable to hydrolyze α-linked peptides.
(§2) In Tables 1-3, to simplify identification of the type of amino acid linkages employed, α-linkages are denoted by a hyphen (for example, Glu-Glu) and all side-chain linkages are denoted by a star (for example, Glu*Glu). The column labeled “% PSMA Hydrolysis” refers to the percentage of hydrolysis of a substrate to APA-Asp or to APS-Glu by purified PSMA. The column labeled “% APA-Asp or -Glu” refers to the percentage of hydrolysis of substrate to APA-Asp or APA-Glu. The column labeled “% Prodrug Remaining” refers to the area of the HPLC peak attributable to starting material divided by the areas of HPLC peaks attributable to starting material, intermediate products, and final products. […] “ND” means “not determined,” in that the experiment was not performed.

[3] = Stability of PSMA substrates in human plasma, 18 hour incubation, HPLC; type: in vitro ADME; conditions: for remaining at 18 h / % APA-Glu or -Asp: 18 hour incubation in human plasma; for remaining at 18 h: HPLC peak area of starting material over all peaks, read-out: % Prodrug Remaining; for % APA-Glu or -Asp: hydrolysis of substrate to APA-Asp or APA-Glu; for stability in serum (in words): species not stated
From the text: as §1, §2

PSMA = PSMA (Homo sapiens, UniProt Q04609); assay: Hydrolysis of methotrexate analog substrates by purified PSMA (HPLC); type: biochemical; conditions: for % PSMA hydrolysis 24 h / % PSMA hydrolysis 48 h: Table 3, hydrolysis of substrate to APA-Asp or APA-Glu by purified PSMA
Protocol: The extent to which various peptide substrates are hydrolyzed by PSMA was determined by synthesizing a series of methotrexate analogs including the 4-N[N-2,4-diamino-6-pteridinyl-methyl)-N-methylamino-benzoate] (APA) portion of methotrexate coupled to a variety of peptides. Poly-glutamated methotrexate is available from Schirks Laboratories in Jona, Switzerland.
A series of α-linked peptides were investigated for PSMA hydrolysis. […] In Tables 1-3, to simplify identification of the type of amino acid linkages employed, α-linkages are denoted by a hyphen (for example, Glu-Glu) and all side-chain linkages are denoted by a star (for example, Glu*Glu).
Substrate specificity for the pteroyl poly-γ-glutamyl carboxypeptidase (folate hydrolase) activity of PSMA was determined by synthesizing a series of γ-linked methotrexate analogs and assaying them for hydrolysis by PSMA.
as §2

TSU cancer cells = assay: Loss of clonogenic survival of TSU cancer cells after exposure to methotrexate analogs; type: cell-based; conditions: 48 hours of exposure
From the text: A number of methotrexate analogs were studied for their effect on clonogenic survival of TSU cancer cells. One such analog is L-aspartic acid, N-[4-[[(2,4-diamino-5-ethyl-6-quiazolinyl)methyl]amino]benzoyl]-sesquihydrate, also known as NSC 184692, available from the NCI Developmental Therapeutics Branch. Another compound is L-aspartic acid, N-[2-chloro-5-[[(2,4-diamino-5-methyl-6-quiazolinyl)methyl]amino]benzoyl]-dihydrate, also known as NSC 132483. Another compound is L-aspartic acid, N-[2-chloro-4-[[(2,4-diamino-6-pteridinyl)methyl]amino]benzoyl]-monohydrate, also known as NSC 134033.
The loss of clonogenic survival following treatment of TSU cancer cells with NSC 184692 and 132483 has been investigated after 48 hours of exposure, and the results are listed in Table 4.

prostate cancer cells = assay: Induction of apoptotic death of prostate cancer cells; type: cell-based; conditions: cell-proliferation independent
Protocol: The TG analog was synthesized by coupling the primary amine of 12ADT to the γ-carboxyl of glutamate, leaving the α-carboxyl of glutamate free to link to other amino acids, as shown in FIG. 2. The 12-ADT*Glu is a potent, cell-proliferation independent inducer of the apoptotic death of prostate cancer cells (LD50 is approximately 50 nM). The corresponding analog consisting of 12-ADT linked to the α-carboxyl of glutamate (that is, 12ADT-Glu) is also a suitable analog, as shown in FIG. 2. The prodrug containing 12ADT*Glu coupled to the longer amino acid chain (that is, 12ADT*Glu-Glu*Glu*Asp-Glu) can also be a suitable substrate. The 12ADT-Glu*Glu*Glu*Asp-Glu prodrug may also be cleaved by PSMA, which may cleave the last peptide bond in the absence of a free α-carboxyl. […] This analog can then be linked via either the α- or γ-carboxyl to a peptide chain.

Chain of PSMA (Q04609 whole entry): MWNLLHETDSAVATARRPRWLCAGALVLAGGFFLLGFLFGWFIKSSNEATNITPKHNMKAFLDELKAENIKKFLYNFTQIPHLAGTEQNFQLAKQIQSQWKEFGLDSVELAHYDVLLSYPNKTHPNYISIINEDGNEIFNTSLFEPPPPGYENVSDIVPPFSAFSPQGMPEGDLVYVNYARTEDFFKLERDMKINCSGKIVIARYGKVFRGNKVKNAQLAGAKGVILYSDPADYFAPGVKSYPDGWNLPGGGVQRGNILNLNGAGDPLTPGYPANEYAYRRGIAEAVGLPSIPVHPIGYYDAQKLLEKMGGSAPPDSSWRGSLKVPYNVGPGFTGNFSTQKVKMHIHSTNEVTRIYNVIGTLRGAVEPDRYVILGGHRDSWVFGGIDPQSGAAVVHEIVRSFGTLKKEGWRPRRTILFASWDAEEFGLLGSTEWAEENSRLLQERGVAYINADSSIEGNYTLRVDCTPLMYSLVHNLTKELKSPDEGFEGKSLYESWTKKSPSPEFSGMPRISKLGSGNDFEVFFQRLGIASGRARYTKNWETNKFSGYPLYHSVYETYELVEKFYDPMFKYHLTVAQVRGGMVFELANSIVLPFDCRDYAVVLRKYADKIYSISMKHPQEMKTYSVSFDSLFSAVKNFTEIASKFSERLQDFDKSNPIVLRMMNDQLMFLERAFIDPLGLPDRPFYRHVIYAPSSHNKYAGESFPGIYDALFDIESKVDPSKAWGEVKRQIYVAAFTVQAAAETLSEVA

C/C=C(/C)C(=O)O[C@H]1C(C)=C2[C@H]([C@@H]1OC(=O)CCCCCCC)[C@@](C)(OC(C)=O)C[C@H](O)[C@@]1(O)[C@H]2OC(=O)[C@@]1(C)O [8-O-debutanoylthapsigargin]
LD50 (cytotoxic activity) [1]: > 50 µM

CN(Cc1cnc2nc(N)nc(N)c2n1)c1ccc(C(=O)N[C@@H](CC(=O)O)C(=O)N[C@@H](CCC(=O)N[C@@H](CCC(=O)N[C@@H](CC(=O)O)C(=O)N[C@@H](CCC(=O)O)C(=O)O)C(=O)O)C(=O)O)cc1 [APA-Asp-Glu*Glu*Asp-Glu]
% APA-Glu or -Asp [2]: 2% | remaining at 18 h [3]: 100% | % APA-Glu or -Asp [3]: 0%

CN(Cc1cnc2nc(N)nc(N)c2n1)c1ccc(C(=O)N[C@@H](CC(=O)O)C(=O)N[C@@H](CCC(=O)O)C(=O)O)cc1 [APA-Asp-Glu]
remaining at 18 h [3]: 99% | % APA-Glu or -Asp [3]: 1% | hydrolysis in human serum (in words) ([3]; 18 hour incubation in human serum, HPLC): no significant hydrolysis

CN(Cc1cnc2nc(N)nc(N)c2n1)c1ccc(C(=O)N[C@@H](CCC(=O)N[C@@H](CCC(=O)N[C@@H](CCC(=O)N[C@@H](CC(=O)O)C(=O)N[C@@H](CCC(N)=O)C(=O)O)C(=O)O)C(=O)O)C(=O)O)cc1 [APA-Glu*Glu*Glu*Asp-Gln]
remaining at 18 h [3]: 76% | % APA-Glu or -Asp [3]: 13%

CN(Cc1cnc2nc(N)nc(N)c2n1)c1ccc(C(=O)N[C@@H](CCC(=O)N[C@@H](CCC(=O)N[C@@H](CCC(=O)N[C@@H](CC(=O)O)C(=O)N[C@@H](CCC(=O)O)C(=O)O)C(=O)O)C(=O)O)C(=O)O)cc1 [APA-Glu*Glu*Glu*Asp-Glu]
% APA-Glu or -Asp [2]: 5% | remaining at 18 h [3]: 57% | % APA-Glu or -Asp [3]: 23%

CN(Cc1cnc2nc(N)nc(N)c2n1)c1ccc(C(=O)N[C@@H](CCC(=O)N[C@@H](CCC(=O)N[C@@H](CCC(=O)N[C@@H](CCC(=O)N[C@@H](CCC(N)=O)C(=O)O)C(=O)O)C(=O)O)C(=O)O)C(=O)O)cc1 [APA-Glu*Glu*Glu*Glu*Gln]
% PSMA hydrolysis 24 h (PSMA): 97% | % PSMA hydrolysis 48 h (PSMA): 100% | hydrolysis by PSMA (in words) (PSMA; text summary of the tables): to a greater extent after 24 hours than any of the γ-linked dipeptide analogs | % APA-Glu or -Asp [2]: 62% | remaining at 18 h [3]: 26% | % APA-Glu or -Asp [3]: 6%

CN(Cc1cnc2nc(N)nc(N)c2n1)c1ccc(C(=O)N[C@@H](CCC(=O)N[C@@H](CCC(=O)N[C@@H](CCC(=O)N[C@@H](CCC(=O)N[C@@H](CCC(=O)O)C(=O)O)C(=O)O)C(=O)O)C(=O)O)C(=O)O)cc1 [APA-Glu*Glu*Glu*Glu*Glu, reference compound]
% PSMA hydrolysis 24 h (PSMA): 96% | % PSMA hydrolysis 48 h (PSMA): 100% | % APA-Glu or -Asp [2]: 68% | remaining at 18 h [3]: 11% | % APA-Glu or -Asp [3]: 11%

N[C@@H](CC(=O)O)C(=O)N[C@@H](CCC(=O)N[C@@H](CCC(=O)N[C@@H](CC(=O)O)C(=O)N[C@@H](CCC(=O)O)C(=O)O)C(=O)O)C(=O)O [Asp-Glu*Glu*Asp-Glu] (H-D[γGlu][γGlu]DE-OH; C-terminus assumed)
stability to hydrolysis in mouse plasma (in words) ([2]; mouse plasma): completely stable to hydrolysis | stability to hydrolysis in human plasma (in words) ([3]; human plasma): completely stable to hydrolysis

NC(=O)CC[C@H](NC(=O)[C@H](CC(=O)O)NC(=O)CC[C@H](NC(=O)CC[C@H](NC(=O)CC[C@H](N)C(=O)O)C(=O)O)C(=O)O)C(=O)O [Glu*Glu*Glu*Asp-Gln] ({γGlu-γGlu-γGlu}-Asp-Gln-OH; C-terminus assumed)
stability in serum (in words) [3]: high stability in serum

N[C@@H](CCC(=O)N[C@@H](CCC(=O)N[C@@H](CCC(=O)N[C@@H](CC(=O)O)C(=O)N[C@@H](CCC(=O)O)C(=O)O)C(=O)O)C(=O)O)C(=O)O [Glu*Glu*Glu*Asp-Glu] ({γGlu-γGlu-γGlu}-Asp-Glu-OH; C-terminus assumed)
stability in serum (in words) [3]: high stability in serum

Cc1c(CNc2ccc(Cl)c(C(=O)N[C@@H](CC(=O)O)C(=O)O)c2)ccc2nc(N)nc(N)c12.O.O [NSC 132483, L-aspartic acid, N-[2-chloro-5-[[(2,4-diamino-5-methyl-6-quiazolinyl)methyl]amino]benzoyl]-dihydrate]
Loss of clonogenic survival (TSU cancer cells; 0.01 μmolar): 0% | Loss of clonogenic survival (TSU cancer cells; 0.05 μmolar): 0% | Loss of clonogenic survival (TSU cancer cells; 0.1 μmolar): 14% | Loss of clonogenic survival (TSU cancer cells; 0.5 μmolar): 39% | Loss of clonogenic survival (TSU cancer cells; 1 μmolar): 50% | Loss of clonogenic survival (TSU cancer cells; 5 μmolar): 78%

CCc1c(CNc2ccc(C(=O)N[C@@H](CC(=O)O)C(=O)O)cc2)ccc2nc(N)nc(N)c12.CCc1c(CNc2ccc(C(=O)N[C@@H](CC(=O)O)C(=O)O)cc2)ccc2nc(N)nc(N)c12.O.O.O [NSC 184692, L-aspartic acid, N-[4-[[(2,4-diamino-5-ethyl-6-quiazolinyl)methyl]amino]benzoyl]-sesquihydrate]
Loss of clonogenic survival (TSU cancer cells; 0.01 μmolar): 17% | Loss of clonogenic survival (TSU cancer cells; 0.05 μmolar): 44% | Loss of clonogenic survival (TSU cancer cells; 0.1 μmolar): 57% | Loss of clonogenic survival (TSU cancer cells; 0.5 μmolar): 82% | Loss of clonogenic survival (TSU cancer cells; 1 μmolar): 88% | Loss of clonogenic survival (TSU cancer cells; 5 μmolar): 93%

O=C(O)c1cc[c]([Hg+])cc1.[OH-] [p-hydroxymercuribenzoate, reference compound]
effect of added inhibitor on hydrolysis of the substrates in plasma ([2]; addition of the non-specific inhibitor of GGH and other cysteine proteases): complete inhibition of hydrolysis

C/C=C(/C)C(=O)O[C@H]1C(C)=C2[C@H]([C@@H]1OC(=O)CCCCCCC)[C@@](C)(OC(C)=O)C[C@H](OC(=O)CCC)[C@@]1(O)[C@H]2OC(=O)[C@@]1(C)O [thapsigargin]
LD50 (cytotoxic activity) [1]: < 0.1 µM

N-L-γ-glutamyl-12-aminododecanoyl-8-0-debutanoyl Thapsigargin [12-ADT*Glu]
LD50 (apoptotic death of prostate cancer cells) (prostate cancer cells): approximately 50 nM
